Consider six compounds from patent US7696166B2, “Use of cyclosporin alkyne/alkene analogues for preventing or treating viral-induced disorders” (Albany Molecular Research, Inc., priority 2006, dated 2010).

Converted amounts (≈) assume the structure as drawn. “Also recorded” adds a separate entry of the source.

One test deals with cyclophilin A (Homo sapiens, UniProt P62937). The conditions noted are these: background; cited from earlier work.
The test system of the next test is HIV-1. Particulars: literature reports, background; cited from earlier work.
In a further test the test system is hepatitis C virus. Particulars: Paeshuyse et al. 2005; cited from earlier work.
Test [1] relates to concanavalin A-stimulated murine splenocytes. The test is described as follows: Concanavalin A (ConA)-stimulated murine splenocyte assay. It is filed as cell-based, BALB/c mice. The conditions noted are these: for IC50: novel cyclosporin alkyne analogue, ConA-stimulated murine splenocytes, [3H]thymidine incorporation. How it is done: Male BALB/c mice, at 5 to 7 weeks of age, were sacrificed by CO2 inhalation. Spleens were removed and dissociated by pushing through a nylon cell strainer. The splenocytes were washed in RPMI 1640/5% fetal calf serum (FCS) and pelleted at 400×g. Red blood cells were then lysed by resuspending the cell pellet in ACK lysis buffer (150 mM NH4Cl, 1 mM KHCO3, 0.1 mM EDTA, 3 mL per spleen) for 10 min at room temperature. After pelleting at 400×g, the cells were washed by resuspending in RPMI 1640/5% FCS and repelleting. The cell pellet was resuspended in RPMI 1640/5% FCS and again passed through a cell strainer to remove cell aggregates. The cells were then counted and adjusted to 2×10^6 cells/ml in RPMI 1640/10% FCS/50 μM 2-mercaptoethanol. Cell viability was assessed by Trypan blue staining. Cyclosporin A or the test compound and two micrograms of concanavalin A were added to the wells of a 96 well plate, prior to the addition of 2×10^5 splenocytes. The cells were cultured in a 37° C. CO2 incubator for 2 days and then pulsed with 1 μCi of [^3H]thymidine for 6 hours. Cells were harvested onto filtermats with a TomTec 96 well plate harvester and lysed with H2O. The filtermat and scintillation fluid were sealed in a plastic sleeve. [^3H]thymidine incorporation was measured with a Wallac Trilux plate counter. Initial screens were done at a fixed value of 100 ng/ml test compound. IC50s were calculated from 7 point concentration-response curves using GraphPad software.
(In general: Dividing cells build labelled thymidine or BrdU into new DNA.)

The conditions of test [2]: cited from earlier work.
The next test relates to calcineurin. The conditions noted are these: background; cited from earlier work.

Chain of cyclophilin A (P62937 whole entry): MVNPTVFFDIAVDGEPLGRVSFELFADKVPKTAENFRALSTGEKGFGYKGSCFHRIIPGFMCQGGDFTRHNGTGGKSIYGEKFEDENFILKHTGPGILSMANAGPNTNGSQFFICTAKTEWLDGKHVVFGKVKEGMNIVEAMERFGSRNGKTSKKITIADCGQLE

Turning to `C/C=C/C[C@@H](C)[C@@H](O)[C@H]1C(=O)N[C@@H](CC)C(=O)N(C)[C@H](C)C(=O)N(CC)[C@@H](C(C)C)C(=O)N[C@@H](C(C)C)C(=O)N(C)[C@@H](CC(C)C)C(=O)N[C@@H](C)C(=O)N[C@H](C)C(=O)N(C)[C@@H](CC(C)C)C(=O)N(C)[C@@H](CC(C)C)C(=O)N(C)[C@@H](C(C)C)C(=O)N1C` [DEBIO-025], the “binding affinity for cyclophilin A” value at cyclophilin A is on record as “potent binding affinity”. Besides, the anti-HIV-1 activity result with HIV-1 is reported as “effective for the treatment of HIV-1”. For the same compound, the “inhibition of hepatitis C virus replication” value with hepatitis C virus is “potent and selective inhibition”.

A word on the IC50: it is the concentration at which inhibition is half-maximal. The low end stands for higher potency, the high end for lower potency. Turning to `CCC1NC(=O)C(C(O)C(C)CC=CC#CBr)N(C)C(=O)C(C(C)C)N(C)C(=O)C(CC(C)C)N(C)C(=O)C(CC(C)C)N(C)C(=O)C(C)NC(=O)C(C)NC(=O)C(CC(C)C)N(C)C(=O)C(C(C)C)NC(=O)C(CC(C)C)N(C)C(=O)CN(C)C1=O` (centres unmarked) [Example 15, cyclosporin alkynyl bromide], in test [1], the “IC50” value stood at 8 ng/mL.

`CC[C@@H]1NC(=O)[C@H]([C@H](O)[C@H](C)C/C=C/C#CC2CC2)N(C)C(=O)[C@H](C(C)C)N(C)C(=O)[C@H](CC(C)C)N(C)C(=O)[C@H](CC(C)C)N(C)C(=O)[C@@H](C)NC(=O)[C@H](C)NC(=O)[C@H](CC(C)C)N(C)C(=O)[C@H](C(C)C)NC(=O)[C@H](CC(C)C)N(C)C(=O)CN(C)C1=O` [Example 33, cyclosporin cyclopropyl alkyne]: the “potency in immunosuppression compared to cyclosporin A and ISATX247” value in test [1] (FIG. 1 legend) is “enhanced or similar potency”. For the same compound, the “IC50” value in test [1] is on record as 9 ng/mL (≈ 7.18 nM).

As to `C/C=C/C[C@@H](C)[C@@H](O)[C@H]1C(=O)N[C@@H](CC)C(=O)N(C)CC(=O)N(C)[C@@H]([C@@H](C)CC)C(=O)N[C@@H](C(C)C)C(=O)N(C)[C@@H](CC(C)C)C(=O)N[C@@H](C)C(=O)N[C@H](C)C(=O)N(C)[C@@H](CC(C)C)C(=O)N(C)[C@@H](CC(C)C)C(=O)N(C)[C@@H](C(C)C)C(=O)N1C` [SDZ NIM 811], the immunosuppressive activity entry in test [2] (Mlynar et al. 1997, background) is given as “completely devoid of immunosuppressive activity; also recorded: none of the immunosuppressive activity”. Moreover, the inhibition of calcineurin entry in the test with calcineurin is reported as “does not inhibit”. The anti-HIV-1 activity result in the test on HIV-1 is “potent and selective anti-HIV-1 activity”.

For `CC#CC[C@@H](C)[C@@H](O)[C@H]1C(=O)N[C@@H](CC)C(=O)N(C)CC(=O)N(C)[C@@H](CC(C)C)C(=O)N[C@@H](C(C)C)C(=O)N(C)[C@@H](CC(C)C)C(=O)N[C@@H](C)C(=O)N[C@H](C)C(=O)N(C)[C@@H](CC(C)C)C(=O)N(C)[C@@H](CC(C)C)C(=O)N(C)[C@@H](C(C)C)C(=O)N1C` [known cyclosporin alkyne], the “relative immunosuppressive activity compared to cyclosporin A” value in test [2] (Rich et al., J. Med. Chem. 33:999-1009 (1990)) is given as 10%.

Consider cyclosporin alkynyl iodide [Example 13], for which, in test [1], the “IC50” value is reported as 1 ng/mL.
